{"source": "patent US20230212571A1", "about": "“COMPOSITIONS AND METHODS FOR DELIVERING POLYNUCLEOTIDES” (NeOnc Technologies, Inc., priority 2020, published 2023)", "key": {"AVM-BEC [1]": {"tested_on": "AVM-BEC", "test": "Biotinylated miR-18a uptake analysis in AVM-BEC", "type": "cell-based, human", "conditions": "biotinylated probes, 30 min at 37° C., no transfection reagent, Ago-2 0.4 nM when indicated", "method": "Biotinylated hsa-miR-18a-5p sense and hsa-miR-18a-3p sense probes were acquired from Integrated DNA Technologies (IDT) and reconstituted in RNAse-free water. A scramble sequence of the miR-18a was designed using GenScript®, and the biotinylated probe using this sequence was also acquired from IDT and reconstituted in RNAse-free water. […] Then, media was replaced by fresh media containing the corresponding probes without Lipofectamine, and AVM-BEC were incubated for 30 min at 37° C. in shear flow conditions. When indicated, Ago-2 (0.4 nM, Abcam) was co-administered with the probes as the microRNA carrier and stabilizer^1. Cells were then washed with PBS and fixed with 4% paraformaldehyde (PFA). Avidin/Biotin blocking kit (Vector Laboratories) was used to block unspecific bindings, and cells were incubated with Alexa Fluor 488 streptavidin (1:200, Thermo Fisher Scientific) for 1 h at room temperature to detect the tagged microRNAs. DAPI (Thermo Fisher Scientific) was used to detect cell nuclei. Cells were mounted with Dako Fluorescence Mounting Medium. Pictures were taken in a Zeiss LSM 510 confocal microscope (Carl Zeiss Inc.)."}, "AVM-BEC [2]": {"tested_on": "AVM-BEC", "test": "Western blot of AVM-BEC lysates", "type": "cell-based, human", "from_the_text": "Human surgical specimens were obtained following written informed consent from patients in accordance with Declaration of Helsinki guidelines and the Institutional Review Board (HS-04B053), at Keck School of Medicine, USC. AVM-BECs were isolated from brain tissues of patients who underwent microsurgical AVM resection. Control BECs were isolated from the structurally normal […] of patients who underwent temporal lobectomy for intractable epilepsy. Endothelial cell (EC) isolation and culture were described^5,9. (Stapleton C J, Armstrong D L, Zidovetzki R, Liu C Y, Giannotta S L, Hofman F M. Thrombospondin-1 modulates the angiogenic phenotype of human cerebral arteriovenous malformation endothelial cells. Neurosurgery. 2011; 68(5):1342-1353) (Ferreira R, Santos T, Amar A, et al. Argonaute-2 promotes miR-18a entry in human brain endothelial cells. J Am Heart Assoc. 2014; 3(3):e000968) ECs were only used between passages 3-5. Experiments were performed under shear flow conditions (12 dyn/cm^2) to reproduce arterial flow^6. (Ferreira R, Santos T, Amar A, et al. MicroRNA-18a improves human cerebral arteriovenous malformation endothelial cell function. Stroke. 2014; 45(1):293-297). For hypoxic experiments, cells were cultured in a Galaxy 48R (Eppendorf) incubator at 3% O2. MicroRNAs were co-administered with Ago-2 to increase the cellular uptake of miR-18a^9 (Ferreira R, Santos T, Amar A, et al. Argonaute-2 promotes miR-18a entry in human brain endothelial cells. J Am Heart Assoc. 2014; 3(3):e000968) (FIG. 9). Methods regarding cell treatments and transfections were included in Data.\nMiR-18a (hsa-miR-18a-5p, 40 nM, Dharmacon) or a scramble microRNA (40 nM, Dharmacon) in nuclease-free water was added with argonaute 2 (Ago-2, 0.4 nM, Abcam) as the microRNA carrier and stabilizer^9. (Ferreira R, Santos T, Amar A, et al. Argonaute-2 promotes miR-18a entry in human brain endothelial cells. J Am Heart Assoc. 2014; 3(3):e000968). No transfection reagent was used with miR-18a or scramble microRNA treatments. Recombinant human TSP-1 (R&D Systems) stock solution was prepared in PBS and further diluted in culture medium to be used at a final concentration of 1000 ng/mL. Cells were treated during 24 h for mRNA and 48 h for protein expression studies. NEO100 (NeOnc Technologies) stock was prepared in DMSO and used immediately or stored at −20° C.\nThe levels of angiogenesis-related proteins were analyzed using the Proteome Profiler™ Human Angiogenesis Array kit (R&D Systems) following the manufacturer's instructions. The protocol for western blot was published^10. (Marín-Ramos N I, Alonso D, Ortega-Gutiérrez S, et al. New inhibitors of angiogenesis with antitumor activity in vivo. J Med Chem. 2015; 58(9):3757-3766). Information about antibodies used was included in Table 1. Membranes were visualized and quantified using a C-Digit Blot scanner (Li-Cor) or a iBright CL1000 (Thermo Fisher Scientific)."}, "[3]": {"test": "Pharmacokinetic study of miR-18a in serum and brain by RT-qPCR", "type": "in vivo, C57BL/6 mice", "from_the_text": "All animal protocols were approved by the USC's Institutional Animal Care and Use Committee (IACUC) and strictly adhered to. MiR-18a was co-administered with Ago-2 (0.0008 nmol/mouse) to increase stability and cellular uptake^9 (Ferreira R, Santos T, Amar A, et al. Argonaute-2 promotes miR-18a entry in human brain endothelial cells. J Am Heart Assoc. 2014; 3(3):e000968). (FIG. 9). Details about randomization, blinding, group size and inclusion/exclusion criteria have been included in Methods.\nFor pharmacokinetic measurements, 0.8 nmol/mouse of miR-18a were administered IV or IN to C57BL/6 mice. At the indicated time points, mice were euthanized, and the serum and brains were collected and flash-frozen in liquid nitrogen (n=6 per time-point and condition). MicroRNAs were isolated using the mirVana™ miRNA Isolation Kit and measured by RT-qPCR as described above."}, "AVM-BEC [4]": {"tested_on": "AVM-BEC", "type": "cell-based", "method": "The apoptotic and necrotic cell death was measured by flow cytometry using PI/Annexin V-Alexa Fluor 488 (ThermoFisher Scientific), following the manufacturer's instructions. After 24 h-treatments, cells were harvested, washed with cold PBS, and suspended in Annexin Binding Buffer (ThermoFisher Scientific) at a concentration of 1×10^6 cells/mL. Following addition of Annexin V and PI, cells were incubated at room temperature for 15 min in the ? dark, and additional 400 μL of 1× binding buffer was added to each sample. Positive controls of cell death were obtained treating cells with 50% ethanol. Ten thousand cells/sample were analyzed using a BD LSRII flow cytometer with the proper compensation controls and the FlowJo_V10 analysis software.\nCells were collected and analyzed for apoptosis, while supernatants were collected and analyzed for necrosis (Cell Death Detection ELISA^PLUS), and for PAI-1, VEGF (Quantikine ELISA Kit, R&D Systems) and TGF-β (Proteintech) protein content, following the manufacturers' instructions. Absorbance was measured using a Fluostar Omega microplate reader (BMG Labtech). Data were normalized to kit controls and number of producing cells."}}, "data": [{"substance": "hsa-miR-18a-5p (UAGGUGCAUCUAGUGCAGAUAG; chemistry not given here; listed as Homo sapiens) [small non-coding RNA molecule involved in post-transcriptional regulation of gene expression; Dharmacon]", "values": [{"measurement": "uptake: levels of miR-18a detected inside the AVM-BEC and their nuclei", "setting": "AVM-BEC [1]", "value": "enough to obtain AVM-BEC uptake"}, {"measurement": "MMP9 protein levels (western blot)", "setting": "AVM-BEC [2]; AVM-BEC", "value": "not significantly (P=0.9409) affected"}, {"measurement": "ratio MMP2/MMP9 protein levels", "setting": "AVM-BEC [2]; AVM-BEC", "value": "lowers the ratio MMP2/MMP9"}, {"measurement": "ADAM10 protein levels (western blot)", "setting": "AVM-BEC [2]; AVM-BEC, P<0.001", "value": "significantly decreased"}, {"measurement": "MMP2 protein levels (western blot)", "setting": "AVM-BEC [2]; AVM-BEC, P=0.0132", "value": "significantly decreased"}, {"measurement": "levels of TGF-β (western blot)", "setting": "AVM-BEC [2]; AVM-BEC, P>0.9999", "value": "not significantly changed"}, {"measurement": "phosphorylation levels of Smad3", "setting": "AVM-BEC [2]; AVM-BEC, P>0.9999", "value": "Neither the phosphorylation levels of Smad3 nor the total levels of Smad4 were altered"}, {"measurement": "total levels of Smad4", "setting": "AVM-BEC [2]; AVM-BEC, P>0.9999", "value": "Neither the phosphorylation levels of Smad3 nor the total levels of Smad4 were altered"}, {"measurement": "phosphorylation levels of Smad1/5", "setting": "AVM-BEC [2]; AVM-BEC, vs scramble", "value": "significantly (P<0.0001) decreased"}, {"measurement": "PAI-1 protein levels (western blot)", "setting": "AVM-BEC [2]; patient-derived AVM-BEC, vs scramble microRNA, P<0.001, n=8", "value": "decreased"}, {"measurement": "miR-18a levels compared to scramble microRNA-treated mice", "setting": "[3]; 0.8 nmol/mouse IV or IN, C57BL/6 mice", "value": "approximately 40 times"}, {"measurement": "retention of miR-18a, IN compared with IV", "setting": "[3]; 0.8 nmol/mouse, IN administration", "value": "longer retention times"}, {"measurement": "time of highest levels of miR-18a in serum and brains, IV compared with IN", "setting": "[3]; 0.8 nmol/mouse, IV administration", "value": "earlier"}, {"measurement": "amount of microRNA in the brain, times the basal levels of miR-18a", "setting": "[3]; IN administration, 0.8 nmol/mouse", "value": "approximately 40 times"}, {"measurement": "time required to reach the peak levels", "setting": "[3]; IN administration, brain", "value": 2, "unit": "h"}, {"measurement": "cell death (apoptosis, necrosis)", "setting": "AVM-BEC [4]", "value": "does not increase cell death"}]}]}
